From patent publication US12077503B2, “Substituted cyclic amides and their use as herbicides” (FMC CORPORATION, priority 2015, dated 2024)

Columns and labels:
Format in all cases: in vivo
[1] = test system: barnyardgrass (Echinochloa crus-galli); test: Test C preemergence; conditions: for Plant response rating (scale of 0 to 100), Barnyardgrass: 31 g ai/ha, 0 is no effect, 100 is complete control; for Plant response rating, Barnyardgrass: scale 0 to 100, 0 no effect, 100 complete control
Outline: (§1)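 Visual 0 (no effect) to 100 (complete control) ratings versus controls, taken 13–15 d after treatment in the greenhouse; dash means no result. Compounds in a surfactant-containing non-phytotoxic solvent blend were applied preemergence to seeds in loam-sand soil or postemergence to 1- to 4-leaf plants (2–18 cm) in peat-based medium.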

[2] = test system: blackgrass (Alopecurus myosuroides); test: Test C preemergence; conditions: for Plant response rating (scale of 0 to 100), Blackgrass: 31 g ai/ha, 0 is no effect, 100 is complete control; for Plant response rating, Blackgrass: scale 0 to 100, 0 no effect, 100 complete control
Outline: as §1

[3] = test system: foxtail, giant (giant foxtail, Setaria faberii); test: Test C preemergence; conditions: for Plant response rating (scale of 0 to 100), Foxtail, Giant: 31 g ai/ha, 0 is no effect, 100 is complete control; for Plant response rating, Foxtail, Giant: scale 0 to 100, 0 no effect, 100 complete control
Outline: as §1

[4] = test system: johnsongrass (Sorghum halepense); test: Test C preemergence; conditions: for Plant response rating (scale of 0 to 100), Johnsongrass: 31 g ai/ha, 0 is no effect, 100 is complete control; for Plant response rating, Johnsongrass: scale 0 to 100, 0 no effect, 100 complete control
Outline: as §1

[5] = test system: lambsquarters (Chenopodium album); test: Test C preemergence; conditions: for Plant response rating (scale of 0 to 100), Lambsquarters: 31 g ai/ha, 0 is no effect, 100 is complete control; for Plant response rating, Lambsquarters: scale 0 to 100, 0 no effect, 100 complete control
Outline: as §1

[6] = test system: morningglory (Ipomoea coccinea); test: Test C preemergence; conditions: for Plant response rating (scale of 0 to 100), Morningglory: 31 g ai/ha, 0 is no effect, 100 is complete control; for Plant response rating, Morningglory: scale 0 to 100, 0 no effect, 100 complete control
Outline: as §1

[7] = test system: ragweed (common ragweed, Ambrosia elatior); test: Test C preemergence; conditions: for Plant response rating (scale of 0 to 100), Ragweed: 31 g ai/ha, 0 is no effect, 100 is complete control; for Plant response rating, Ragweed: scale 0 to 100, 0 no effect, 100 complete control
Outline: as §1

[8] = test system: soybean (Glycine max); test: Test C preemergence; conditions: for Plant response rating (scale of 0 to 100), Soybean: 31 g ai/ha, 0 is no effect, 100 is complete control; for Plant response rating, Soybean: scale 0 to 100, 0 no effect, 100 complete control
Outline: as §1

[9] = test system: waterhemp (common waterhemp, Amaranthus rudis); test: Test C preemergence; conditions: for Plant response rating (scale of 0 to 100), Waterhemp: 31 g ai/ha, 0 is no effect, 100 is complete control; for Plant response rating, Waterhemp: scale 0 to 100, 0 no effect, 100 complete control
Outline: as §1

[10] = test system: Monochoria (Monochoria vaginalis); test: Test F flooded paddy test; set-up: key: 0 = no effect, 100 = complete control; conditions: Flood
Text: (§2) Plant species in the flooded paddy test consisted of one stand of 9 or 10 water seeded rice seedlings (Rice, W. S. Jap, Oryza sativa cv. ‘Japonica—M202’ or Rice, W. S. Ind, ‘Indica’), and two stands of 3 or 4 transplanted rice seedlings (Oryza sativa cv. ‘Japonica—M202’), Monochoria (Monochoria vaginalis), sedge, umbrella (small-flower umbrella sedge, Cyperus difformis), hardstem bulrush (Scirpus juncoides), redstem (purple redstem, Ammannia coccinea), rice flatsedge (Cyperus iria), bearded sprangletop (Leptochloa fascicularis), barnyardgrass (Echinochloa crus-galli), waterplantain (common waterplantain, Alisma plantago-aquatica), and late watergrass (Echinochloa oryzicola) grown to the 2 to 2.5 leaf stage for testing. Potted plants were grown in a greenhouse with day/night temperature settings of 30/27° C., and supplemental balanced lighting was provided to maintain a 16-hour photoperiod. At time of treatment, test pots were flooded to 3 cm above the soil surface, treated by application of test compounds directly to the paddy water, and then maintained at that water depth for the duration of the test. Effects of treatments on rice and weeds were visually evaluated by comparison to untreated controls after 21 d. Plant response ratings, summarized in Table F, are based on a scale of 0 to 100 where 0 is no effect and 100 is complete control. A dash (-) response means no test result.

[11] = test system: barnyardgrass (Echinochloa crus-galli); test: Test F flooded paddy test; set-up: key: 0 = no effect, 100 = complete control; conditions: Flood
Text: as §2

[12] = test system: bearded sprangletop (Leptochloa fascicularis); test: Test F flooded paddy test; set-up: key: 0 = no effect, 100 = complete control; conditions: Flood
Text: as §2

[13] = test system: late watergrass (Echinochloa oryzicola); test: Test F flooded paddy test; set-up: key: 0 = no effect, 100 = complete control; conditions: Flood
Text: as §2

[14] = test system: rice flatsedge (Cyperus iria); test: Test F flooded paddy test; set-up: key: 0 = no effect, 100 = complete control; conditions: Flood
Text: as §2

[15] = test system: sedge, umbrella (small-flower umbrella sedge, Cyperus difformis); test: Test F flooded paddy test; set-up: key: 0 = no effect, 100 = complete control; conditions: Flood
Text: as §2

[16] = test system: water seeded rice seedlings (Rice, W. S. Jap, Oryza sativa cv. ‘Japonica—M202’); test: Test F flooded paddy test; set-up: key: 0 = no effect, 100 = complete control; conditions: Flood
Text: as §2

CN1C[C@H](c2ccc(C(F)(F)F)cc2)[C@@H](C(=O)Nc2ccccc2F)C1=O [Compound 622, (3S,4S)—N-(2-fluorophenyl)-1-methyl-2-oxo-4-[4-(trifluoromethyl)phenyl]-3-pyrrolidinecarboxamide]
Plant response rating (scale of 0 to 100), Barnyardgrass [1]: 90
Plant response rating, Barnyardgrass ([1]; 62 g ai/ha): 95
Plant response rating, Barnyardgrass ([1]; 125 g ai/ha): 90
Plant response rating, Barnyardgrass ([1]; 250 g ai/ha): 95
Plant response rating (scale of 0 to 100), Blackgrass [2]: 0
Plant response rating, Blackgrass ([2]; 62 g ai/ha): 0
Plant response rating, Blackgrass ([2]; 125 g ai/ha): 80
Plant response rating, Blackgrass ([2]; 250 g ai/ha): 85
Plant response rating (scale of 0 to 100), Foxtail, Giant [3]: 90
Plant response rating, Foxtail, Giant ([3]; 62 g ai/ha): 90
Plant response rating, Foxtail, Giant ([3]; 125 g ai/ha): 95
Plant response rating, Foxtail, Giant ([3]; 250 g ai/ha): 95
Plant response rating (scale of 0 to 100), Johnsongrass [4]: 25
Plant response rating, Johnsongrass ([4]; 62 g ai/ha): 60
Plant response rating, Johnsongrass ([4]; 125 g ai/ha): 50
Plant response rating, Johnsongrass ([4]; 250 g ai/ha): 65
Plant response rating (scale of 0 to 100), Lambsquarters [5]: 75
Plant response rating, Lambsquarters ([5]; 62 g ai/ha): 35
Plant response rating, Lambsquarters ([5]; 125 g ai/ha): 70
Plant response rating, Lambsquarters ([5]; 250 g ai/ha): 75
Plant response rating (scale of 0 to 100), Morningglory [6]: 0
Plant response rating, Morningglory ([6]; 62 g ai/ha): 0
Plant response rating, Morningglory ([6]; 125 g ai/ha): 25
Plant response rating, Morningglory ([6]; 250 g ai/ha): 20
Plant response rating (scale of 0 to 100), Ragweed [7]: 45
Plant response rating, Ragweed ([7]; 62 g ai/ha): 70
Plant response rating, Ragweed ([7]; 125 g ai/ha): 85
Plant response rating, Ragweed ([7]; 250 g ai/ha): 85
Plant response rating (scale of 0 to 100), Soybean [8]: 0
Plant response rating, Soybean ([8]; 62 g ai/ha): 20
Plant response rating, Soybean ([8]; 125 g ai/ha): 85
Plant response rating, Soybean ([8]; 250 g ai/ha): 45
Plant response rating (scale of 0 to 100), Waterhemp [9]: 75
Plant response rating, Waterhemp ([9]; 62 g ai/ha): 85
Plant response rating, Waterhemp ([9]; 125 g ai/ha): 90
Plant response rating, Waterhemp ([9]; 250 g ai/ha): 90

CN1C[C@H](c2ccc(F)c(F)c2)[C@@H](C(=O)Nc2cccc(F)c2F)C1=O [Compound 639, (3S,4S)—N-(2,3-difluorophenyl)-4-(3,4-difluorophenyl)-1-methyl-2-oxo-3-pyrrolidinecarboxamide]
Plant response rating (scale of 0 to 100), Barnyardgrass [1]: 90
Plant response rating, Barnyardgrass ([1]; 62 g ai/ha): 95
Plant response rating, Barnyardgrass ([1]; 125 g ai/ha): 95
Plant response rating, Barnyardgrass ([1]; 250 g ai/ha): 100
Plant response rating (scale of 0 to 100), Blackgrass [2]: 40
Plant response rating, Blackgrass ([2]; 62 g ai/ha): 85
Plant response rating, Blackgrass ([2]; 125 g ai/ha): 85
Plant response rating, Blackgrass ([2]; 250 g ai/ha): 90
Plant response rating (scale of 0 to 100), Foxtail, Giant [3]: 90
Plant response rating, Foxtail, Giant ([3]; 62 g ai/ha): 90
Plant response rating, Foxtail, Giant ([3]; 125 g ai/ha): 95
Plant response rating, Foxtail, Giant ([3]; 250 g ai/ha): 100
Plant response rating (scale of 0 to 100), Johnsongrass [4]: 20
Plant response rating, Johnsongrass ([4]; 62 g ai/ha): 65
Plant response rating, Johnsongrass ([4]; 125 g ai/ha): 80
Plant response rating, Johnsongrass ([4]; 250 g ai/ha): 90
Plant response rating (scale of 0 to 100), Lambsquarters [5]: 20
Plant response rating, Lambsquarters ([5]; 62 g ai/ha): 25
Plant response rating, Lambsquarters ([5]; 125 g ai/ha): 40
Plant response rating, Lambsquarters ([5]; 250 g ai/ha): 70
Plant response rating (scale of 0 to 100), Morningglory [6]: 20
Plant response rating, Morningglory ([6]; 62 g ai/ha): 10
Plant response rating, Morningglory ([6]; 125 g ai/ha): 35
Plant response rating, Morningglory ([6]; 250 g ai/ha): 40
Plant response rating (scale of 0 to 100), Ragweed [7]: 5
Plant response rating, Ragweed ([7]; 62 g ai/ha): 60
Plant response rating, Ragweed ([7]; 125 g ai/ha): 75
Plant response rating, Ragweed ([7]; 250 g ai/ha): 80
Plant response rating (scale of 0 to 100), Soybean [8]: 0
Plant response rating, Soybean ([8]; 62 g ai/ha): 0
Plant response rating, Soybean ([8]; 125 g ai/ha): 10
Plant response rating, Soybean ([8]; 250 g ai/ha): 20
Plant response rating (scale of 0 to 100), Waterhemp [9]: 50
Plant response rating, Waterhemp ([9]; 62 g ai/ha): 65
Plant response rating, Waterhemp ([9]; 125 g ai/ha): 75
Plant response rating, Waterhemp ([9]; 250 g ai/ha): 80
Plant response rating: Monochoria ([10]; 32 g ai/ha): 65
Plant response rating: Monochoria ([10]; 64 g ai/ha): 98
Plant response rating: Monochoria ([10]; 125 g ai/ha): 100
Plant response rating: Monochoria ([10]; 250 g ai/ha): 100
Plant response rating: Barnyardgrass ([11]; 32 g ai/ha): 90
Plant response rating: Barnyardgrass ([11]; 64 g ai/ha): 100
Plant response rating: Barnyardgrass ([11]; 125 g ai/ha): 100
Plant response rating: Barnyardgrass ([11]; 250 g ai/ha): 100
Plant response rating: Sprangletop, Brdd. ([12]; 32 g ai/ha): 85
Plant response rating: Sprangletop, Brdd. ([12]; 64 g ai/ha): 85
Plant response rating: Sprangletop, Brdd. ([12]; 125 g ai/ha): 95
Plant response rating: Sprangletop, Brdd. ([12]; 250 g ai/ha): 98
Plant response rating: Watergrass, Late ([13]; 32 g ai/ha): 100
Plant response rating: Watergrass, Late ([13]; 64 g ai/ha): 100
Plant response rating: Watergrass, Late ([13]; 125 g ai/ha): 100
Plant response rating: Watergrass, Late ([13]; 250 g ai/ha): 100
Plant response rating: Flatsedge, Rice ([14]; 32 g ai/ha): 0
Plant response rating: Flatsedge, Rice ([14]; 64 g ai/ha): 0
Plant response rating: Flatsedge, Rice ([14]; 125 g ai/ha): 0
Plant response rating: Flatsedge, Rice ([14]; 250 g ai/ha): 0
Plant response rating: Sedge, Umbrella ([15]; 32 g ai/ha): 0
Plant response rating: Sedge, Umbrella ([15]; 64 g ai/ha): 0
Plant response rating: Sedge, Umbrella ([15]; 125 g ai/ha): 0
Plant response rating: Sedge, Umbrella ([15]; 250 g ai/ha): 0
Plant response rating: Rice, Water Seeded ([16]; 32 g ai/ha): 0
Plant response rating: Rice, Water Seed. ([16]; 64 g ai/ha): 40
Plant response rating: Rice, Water Seed. ([16]; 125 g ai/ha): 50
Plant response rating: Rice, Water Seeded ([16]; 250 g ai/ha): 75
